US20200254065A1, “LONG-ACTING GLP-2 ANALOGS” (OPKO Biologics Ltd., priority 2019, published 2020)
Marks after values point to notes of the source that are not given here. Square brackets hold non-standard residues; d marks the D form. Ends that are not written are not given here. Peptide text beside a SMILES is read from it. Nle = CCCC[C@H](N)C(=O)O

Key:
[1] = test system: intestine epithelium (crypts plus villi); assay: Crypts plus villi length, histopathology of small intestine; assay type: in vivo, SD rats; settings: for Percent increase of Crypts plus Villi length over vehicle (FIG. 1): injected once at 2 mg/kg peptide dose, 6th day
Method: In addition to PEG30-FMS-V4 and PEG30-Fmoc-V4 that have been pharmacology evaluated by small intestinal weight evaluation (As shown in Example 5), four other reversible PEGylated variant 4 (“V4”) conjugates and two reversible linker-V4 conjugates were synthesized. All the above were injected to 6 normal SD rats/group once at 2 mg/kg (peptide dose), while on the 6th day, animals were scarified, and the small intestine was weighted followed by histopathology evaluation. […] Therefore, slices from three areas of the intestine (duodenum, jejunum and ilium) were stained with hematoxylin and eosin and at least 7 Crypts+Villi length/slice were measured. The averaged Villi+Crypt length of each treatment group (n=6) was compared to the vehicle group (negative control) and calculated as percentage increase over vehicle. […]
An additional study to evaluate the efficacy and the longevity of V4 and Cys-FMS-V4 was conducted (Study reference 15204) in which the animals were sacrificed on Days 6 (N=6), 10 (N=4) and 14 (N=4). This experiment measured the pharmacological response compared to the commercially approved SBS treatment drug Gattex. In addition, two new conjugates were tested by conjugating V4 to reduced OSu-linker and Cys-FMS-V4 purified from resin. The animals were injected with a single SC injection at Day 1 with 2 mg/kg peptide content of V4, Cys-FMS-V4, FMS-OSu-V4, Apraglutide and Glepaglutide while Gattex was SC injected daily at 2.5 mg/kg peptide content. […]

GLP-2 receptor [2] = target: T1, GLP-2 receptor (Homo sapiens, UniProt O95838); assay: GLP-2 receptor Cell Based Assay (CBA); settings: Table 8; average of 3 independent CBA
T1 sequence (O95838 1-553): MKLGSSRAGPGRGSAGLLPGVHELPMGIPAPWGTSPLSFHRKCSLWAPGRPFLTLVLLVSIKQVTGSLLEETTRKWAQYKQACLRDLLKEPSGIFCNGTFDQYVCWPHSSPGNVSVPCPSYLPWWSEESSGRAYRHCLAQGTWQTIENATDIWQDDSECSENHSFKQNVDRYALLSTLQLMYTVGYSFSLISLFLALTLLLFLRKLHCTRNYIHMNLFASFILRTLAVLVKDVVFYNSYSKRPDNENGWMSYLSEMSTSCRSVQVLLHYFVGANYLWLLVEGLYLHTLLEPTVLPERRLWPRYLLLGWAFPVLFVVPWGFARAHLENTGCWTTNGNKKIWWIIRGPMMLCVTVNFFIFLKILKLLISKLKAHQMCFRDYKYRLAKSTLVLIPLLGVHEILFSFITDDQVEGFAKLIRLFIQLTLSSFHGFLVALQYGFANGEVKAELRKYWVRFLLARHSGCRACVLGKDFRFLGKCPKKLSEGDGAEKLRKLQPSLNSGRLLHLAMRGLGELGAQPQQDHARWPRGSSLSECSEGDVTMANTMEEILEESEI
Method: Evaluation of in vitro binding affinity of the different peptides was assessed by using Cell Based Assay (CBA) in the presence of escalating doses of the different peptides.

small intestine = assay: Intestine weight model in rats; assay type: in vivo, SD rats; settings: for Avg. small intestine weight (gr) / Small intestine weight increase over vehicle (%): normal SD rats, injected once at 2 mg/kg peptide dose, 6th day; for Small intestine weight increase over vehicle (%): MAL-FMS-V4 compared to Vehicle 2
Method: In the pharmacology study, the conjugates were injected subcutaneously twice, on days 1 and 3 at 1 mg/kg (peptide dose) and intestine weight was performed on day 6. In addition to the PEGylated conjugates, GLP-2-Gly2 was injected at the same dose and regimen for comparison. The average of the intestine weight of each group was compared to that of the vehicle group.
In a different study, several of the PEGylated teduglutide were injected as a single dose at 1 mg/kg and the intestine weight performed on day 6.
Pharmacology and pharmacokinetic studies were performed with the most promising GLP-2 variants to evaluate their efficacy and longevity, respectively. The intestine weight model in rats was conducted to evaluate efficacy, by measuring percent increase of the intestine weight of treated animals over the vehicle group. In this study, the peptides were injected twice, on days 1 and 3 at 1 mg/kg and the intestine weight was conducted on day 6.
PEG20-FMS-V6, PEG20-Fmoc-V6 and PEG40-FMS-V6 were injected once at 1 mg/kg dose on day 1, while group D was also injected twice on days 1 & 3 at 1 mg/kg. The intestine weight was performed on day 6.
Three different reversible PEGylated GLP-2 variants using mutated peptide #4 were injected at 2 mg/kg (peptide dose), once every 6 days for 12 days. On the 12th day the intestine was weighted and compared to the control group. PEG30-FMS-V4 was injected at 0.5 mg/kg as well to evaluate the efficacy dose range.
In addition to PEG30-FMS-V4 and PEG30-Fmoc-V4 that have been pharmacology evaluated by small intestinal weight evaluation (As shown in Example 5), four other reversible PEGylated variant 4 (“V4”) conjugates and two reversible linker-V4 conjugates were synthesized. All the above were injected to 6 normal SD rats/group once at 2 mg/kg (peptide dose), while on the 6th day, animals were scarified, and the small intestine was weighted followed by histopathology evaluation. […] Therefore, slices from three areas of the intestine (duodenum, jejunum and ilium) were stained with hematoxylin and eosin and at least 7 Crypts+Villi length/slice were measured. The averaged Villi+Crypt length of each treatment group (n=6) was compared to the vehicle group (negative control) and calculated as percentage increase over vehicle.
Additional studies were conducted to evaluate the efficacy of the V4 peptide and the reversible MAL-FMS-V4. The long acting effect of V4 and the conjugates were evaluated at Day 6 and Day 10 following treatment (Study reference 15203). All test groups (n=9) were injected SC with 2 mg/kg peptide content at Day 1. At Days 6 and 10, animals were sacrificed and the small intestine underwent histopathology evaluation (6 animals for Day 6, 3 animals for Day 10). FIGS. 12 and 13 show the pharmacology effect of different V4 conjugates and Apraglutide and Glepaglutide as measured by the percent increase of small intestine weight and crypts plus villi length over vehicle, respectively.
To further evaluate the pharmacology efficacy of V4 and Cys-FMS-V4, an experiment was performed to test their acute and prolonged effect on the small intestine (Study reference 15205). In addition, V4 and Cys-FMS-V4 were administrated as a single SC injection on Day 1 at 3 different doses (0.5, 2.0 or 8.0 mg/kg peptide content, 6 rats per group) to assess the dose dependence effect. The pharmacological effect on small intestine weight and villi plus crypts length was measured at Days 3, 7 and 14, and the results are presented in FIGS. 15 and 16. […] It should be noted that this acute response was higher for V4 compared to Cys-FMS-V4 at all 3 dose levels.

GLP-2 receptor [3] = target: T2, GLP-2 receptor (UniProt O95838 1-553, limits assumed); assay: cell-based or functional assay
T2 sequence (looked up): T1 sequence (O95838 1-553)

GLP-2 receptor [4] = target: GLP-2 receptor (UniProt O95838); assay: cell-based or functional assay
[5] = 2 mg/kg peptide dose once every 6 days for 12 days, weighed on 12th day

In the case of `CCCC[C@H](NC(=O)[C@H](CCC(=O)O)NC(=O)[C@H](CC(=O)O)NC(=O)[C@H](CO)NC(=O)[C@H](Cc1ccccc1)NC(=O)[C@H](CO)NC(=O)CNC(=O)[C@H](CC(=O)O)NC(=O)CNC(=O)[C@@H](N)Cc1c[nH]cn1)C(=O)N[C@H](Cc1ccccc1)C(=O)N[C@H](C(=O)N[C@H](C(=O)N[C@@H](CC(C)C)C(=O)N[C@@H](CC(=O)O)C(=O)N[C@@H](CC(C)C)C(=O)N[C@@H](CC(C)C)C(=O)N[C@@H](C)C(=O)N[C@@H](C)C(=O)N[C@@H](CCCNC(=N)N)C(=O)N[C@@H](CC(=O)O)C(=O)N[C@@H](Cc1ccccc1)C(=O)N[C@H](C(=O)N[C@@H](CC(N)=O)C(=O)N[C@@H](Cc1c[nH]c2ccccc12)C(=O)N[C@@H](CC(C)C)C(=O)N[C@H](C(=O)N[C@@H](CCC(N)=O)C(=O)N[C@H](C(=O)N[C@@H](CCCCN)C(=O)N[C@H](C(=O)N[C@H](C(=O)N[C@@H](CC(=O)O)C(N)=O)[C@@H](C)O)[C@@H](C)CC)[C@@H](C)O)[C@@H](C)CC)[C@@H](C)CC)[C@@H](C)CC)[C@@H](C)O` [Variant 1, reference compound] (H-HGDGSFSDE[Nle][dF]TILDLLAARDFINWLIQTKITD-NH2), the “Crypts plus villi length percent increase over vehicle (FIG. 13)” value ([1]; Study 15203, single SC 2 mg/kg on Day 1, Days 6 and 10) is reported as “moderate effect that was higher than Glepaglutide and the PEG30-FMS-V4 conjugate”, the “EC50 Ratio to Teduglutide” value (GLP-2 receptor [2]) is reported as 2.9 and the “EC50 Ratio to Variant 4” value (GLP-2 receptor [2]) is reported as 1.6.

“MAL-FMS-V4 (HGEGSFSDE[Nle]NTILDLLAARDFINWLIQTKITD-NH2; also: MAL-FMS conjugate, place not given here)” was tested, and the “Avg. small intestine weight (gr)” value (small intestine) was 7.0 gr, the “Percent increase of Crypts+Villi length over vehicle (FIG. 3)” value ([1]; Study 15201, 0.5 and 2 mg/kg peptide dose once, 6 days after injection) was “dose dependent pharmacology effect on the intestine epithelium” and the “Percent increase of Crypts plus Villi length over vehicle (FIG. 1)” value (shortened to “Percent increase … (FIG. 1)”) [1] was “showed the most pronounce effect on the intestine epithelium”.

With “PEG30-Fmoc-V4 (HGEGSFSDE[Nle]NTILDLLAARDFINWLIQTKITD-NH2; also: PEG30-Fmoc conjugate, place not given here)” the “Average Intestine weight (gr)” value (small intestine; [5]) was 7.8 gr, the “Increase of intestine weight over vehicle (%)” value (small intestine; [5]) was 29% and the “Avg. small intestine weight (gr)” value (small intestine) was 7.0 gr. The “Small intestine weight increase over vehicle (%)” value (small intestine) was 36.0** % and the “Percent increase … (FIG. 1)” value [1] was “better effect on the intestine epithelium than the V4 peptide”.

For “PEG30-MeOF-V4 (HGEGSFSDE[Nle]NTILDLLAARDFINWLIQTKITD-NH2; also: PEG30-MeOF conjugate, place not given here)”, the “Avg. small intestine weight (gr)” value (small intestine) was 7.0 gr, the “Small intestine weight increase over vehicle (%)” value (small intestine) was 39.0** % and the “Percent increase … (FIG. 1)” value [1] was “better effect on the intestine epithelium than the V4 peptide”.

B1: GLP-2 Variant #5 (peptide)
peptide: H-HGEGSFSDE[Nle]NTILDYLAARDFINWLIQTKITD-NH2
SMILES: CCCC[C@H](NC(=O)[C@H](CCC(=O)O)NC(=O)[C@H](CC(=O)O)NC(=O)[C@H](CO)NC(=O)[C@H](Cc1ccccc1)NC(=O)[C@H](CO)NC(=O)CNC(=O)[C@H](CCC(=O)O)NC(=O)CNC(=O)[C@@H](N)Cc1c[nH]cn1)C(=O)N[C@@H](CC(N)=O)C(=O)N[C@H](C(=O)N[C@H](C(=O)N[C@@H](CC(C)C)C(=O)N[C@@H](CC(=O)O)C(=O)N[C@@H](Cc1ccc(O)cc1)C(=O)N[C@@H](CC(C)C)C(=O)N[C@@H](C)C(=O)N[C@@H](C)C(=O)N[C@@H](CCCNC(=N)N)C(=O)N[C@@H](CC(=O)O)C(=O)N[C@@H](Cc1ccccc1)C(=O)N[C@H](C(=O)N[C@@H](CC(N)=O)C(=O)N[C@@H](Cc1c[nH]c2ccccc12)C(=O)N[C@@H](CC(C)C)C(=O)N[C@H](C(=O)N[C@@H](CCC(N)=O)C(=O)N[C@H](C(=O)N[C@@H](CCCCN)C(=O)N[C@H](C(=O)N[C@H](C(=O)N[C@@H](CC(=O)O)C(N)=O)[C@@H](C)O)[C@@H](C)CC)[C@@H](C)O)[C@@H](C)CC)[C@@H](C)CC)[C@@H](C)CC)[C@@H](C)O
In the case of B1, the “EC50 Ratio to Teduglutide, CBA” value (GLP-2 receptor [3]) is reported as 2.4 fold and the “EC50 [nM], Cell Based Assay (CBA), cells overexpressing the GLP-2 receptor” value (GLP-2 receptor [3]) is reported as 13.6 nM.

B2: GLP-2 Variant #3 (peptide)
peptide: H-HGEGSFSDE[Nle][dH]TILDNLAARDFINWLIQTKITD-NH2
SMILES: CCCC[C@H](NC(=O)[C@H](CCC(=O)O)NC(=O)[C@H](CC(=O)O)NC(=O)[C@H](CO)NC(=O)[C@H](Cc1ccccc1)NC(=O)[C@H](CO)NC(=O)CNC(=O)[C@H](CCC(=O)O)NC(=O)CNC(=O)[C@@H](N)Cc1c[nH]cn1)C(=O)N[C@H](Cc1c[nH]cn1)C(=O)N[C@H](C(=O)N[C@H](C(=O)N[C@@H](CC(C)C)C(=O)N[C@@H](CC(=O)O)C(=O)N[C@@H](CC(N)=O)C(=O)N[C@@H](CC(C)C)C(=O)N[C@@H](C)C(=O)N[C@@H](C)C(=O)N[C@@H](CCCNC(=N)N)C(=O)N[C@@H](CC(=O)O)C(=O)N[C@@H](Cc1ccccc1)C(=O)N[C@H](C(=O)N[C@@H](CC(N)=O)C(=O)N[C@@H](Cc1c[nH]c2ccccc12)C(=O)N[C@@H](CC(C)C)C(=O)N[C@H](C(=O)N[C@@H](CCC(N)=O)C(=O)N[C@H](C(=O)N[C@@H](CCCCN)C(=O)N[C@H](C(=O)N[C@H](C(=O)N[C@@H](CC(=O)O)C(N)=O)[C@@H](C)O)[C@@H](C)CC)[C@@H](C)O)[C@@H](C)CC)[C@@H](C)CC)[C@@H](C)CC)[C@@H](C)O
B2 was tested, and the “EC50 Ratio to Teduglutide, CBA” value (GLP-2 receptor [3]) was 2.5 fold and the “EC50 [nM], Cell Based Assay (CBA), cells overexpressing the GLP-2 receptor” value (GLP-2 receptor [3]) was 14.2 nM.

HGDGSFSDE[Nle][dF]TILDLLAARDFINWLIQTKITD-NH2 [Apraglutide (V1)] gave an EC50 (nM) Average, GLP2-receptor CBA, 3 independent assays (GLP-2 receptor [4]) of 1.7 nM, an EC50 Ratio to Teduglutide, GLP2-receptor CBA (GLP-2 receptor [4]) of 2.9 fold and an EC50 Ratio to Variant 4, GLP2-receptor CBA (GLP-2 receptor [4]) of 1.6 fold.
